Assay results from the NIST ThermoML archive (doi:10.1016/j.tca.2018.06.008).
Numbers after ± are expanded uncertainties.

Details: 101.33 kPa, Liquid, Hot disk method

thermal conductivity (298.15 K) | thermal conductivity (303.15 K) | thermal conductivity (308.15 K) | thermal conductivity (313.15 K) | thermal conductivity (318.15 K) | thermal conductivity (323.15 K) | Compound
0.6132 ± 0.011 W/m/K | 0.6201 ± 0.012 W/m/K | 0.6249 ± 0.012 W/m/K | 0.6302 ± 0.013 W/m/K | 0.6368 ± 0.011 W/m/K | 0.6427 ± 0.014 W/m/K | O [water]
0.2514 ± 0.0074 W/m/K | 0.2535 ± 0.0061 W/m/K | 0.2551 ± 0.012 W/m/K | 0.2559 ± 0.0076 W/m/K | 0.2568 ± 0.011 W/m/K | 0.2579 ± 0.011 W/m/K | OCCO [1,2-ethanediol]
